Experiment: Stabilization of Vitamin C: spectral absorption at 265 nm after exposure to air with storage in the dark
Type: physicochemical
Settings: Vitamin C combined with Nanotope AO7 (encapsulated AO7 1.00%, ascorbic acid 1.00% in water phase), phosphate buffer pH 6, exposure to air, 20° C.
Experimental: Aqueous solution of Vitamin C (concentration=40.5 mM), buffered at pH=6 (Phosphate buffer, previously evacuated and then flushed with Nitrogen to remove as much Oxygen as possible). a) Standalone Vitamin C: 0.7 mM b) Combination Vitamin C/Nanotope AO7: [table] Absorption measurement with Perkin Elmer Lambda 16; cuvette length d=0.1 cm Irradiation chamber Atlas CPS+; temperature of measurement=35° C. Spectral absorption of Vitamin C (Ascorbic Acid) at its maximum wavelength (Imax=265 nm); maximum extinction at time after exposure to air with storage in the dark. Experiments were done at 20° C.

O=C1O[C@H]([C@@H](O)CO)C(O)=C1O [Vitamin C, ascorbic acid]
protection of Vitamin C (maximum extinction at 265 nm): efficiently protected

Reference: patent publication US20090258041A1, “Protection of Oxidizable Agents” (priority 2005, published 2009)
